Source: patent US20140341916A1, “THERAPEUTIC COMBINATIONS AND METHODS OF TREATING MELANOMA” (Genentech, Inc., priority 2011, published 2014)

Key:
ETBR transcript = ETBR transcript level in melanoma cell lines, Taqman, normalized to RPL19; assay type: cell-based, human; conditions: 24 h
Method: (§1) Melanoma cell lines UACC-257X2.2, A2058, COLO 829, IPC-298 (ATCC) were treated with a BRAF inhibitor drug (“BRAFi”), specifically RG7204 at varying concentrations by adding the appropriate drug volume to cells in culture for 24 h on four-well dishes.
(§2) To determine the effect of BRAFi on ETBR and control ribosomal protein L19 (RPL19) transcript levels, the following experiments were performed. Cells treated with RG7204 for 24 h were harvested from plates by scraping and processed for total RNA using Qiashredder and RNeasy mini kits (79654, 74104 from Qiagen, Valencia, Calif.). Taqman assays were set up using reagents from Applied Biosystems (ABI, Foster City, Calif.) and assayed using 7500 Real Time PCR machine and software from ABI. Primer-probe sets were designed with primers flanking a fluorogenic probe dual labeled with Reporter dye FAM and quencher dye TAMRA.
(§3) Melanoma cell lines A2058, COLO 829, SK23-MEL and IPC-298 (ATCC) were treated with a MEK inhibitor drug (“MEKi-973” or “MEKi-623”), at varying concentrations (0 μM, 0.01 μM, 0.1 μM or 1 μM) by adding the appropriate drug volume to cells in culture for 24 h on four-well dishes.
as §2, with “MEKi” for “BRAFi”, “ETBR” for “ETBR and control ribosomal protein L19 (RPL19)”, “performed as described above in Example 3.” for “performed.”, “either MEKi-973” for “RG7204”

ETBR total protein = ETBR total protein in melanoma cell lines, Western blot; assay type: cell-based, human; conditions: 24 h
Method: as §1
To test whether the increase in ETBR transcripts due to BRAFi treatment also results in any changes in ETBR total protein levels, Western blot experiments were performed on the same cell lines treated with BRAFi RG7204 as described above. For Western blotting, the following reagents were used: for detection of proteins: an anti-ETBR in-house generated monoclonal antibody 1H1.8.5, anti-Phospho-p44/42 MAPK (Erk1/2) (Thr202/Tyr204) antibody (9101, Cell Signaling Technology), anti-p44/42 MAPK (Erk1/2) antibody (9102, Cell Signaling Technology) and as controls, a rabbit polyclonal anti-GAPDH (glyceraldehyde-3-phosphate dehydrogenase) antibody (PA1-987; Affinity Bioreagents) and mouse monoclonal anti-β-Tubulin antibody (556321, BD Pharmingen). The results for UACC-257X2.2 are shown in FIG. 4B, the results for A2058 are shown in FIG. 8B, the results for COLO 829 are shown in FIG. 6B and the results for IPC-298 are shown in FIG. 10.
as §3
To test whether the increase in ETBR transcripts due to MEKi treatment also results in any changes in ETBR total protein levels, Western blot experiments were performed on cell lines COLO829 (BRAF^V600E), A2058 (BRAF^V600E), SK23-MEL (BRAF^WT/RAS^WT), or IPC-298 (BRAF^WT/RAS^[…]) which were treated with MEKi-973 as described above. For Western blotting, the following reagents were used: for detection of proteins: an anti-ETBR in-house generated monoclonal antibody 1H1.8.5, anti-Phospho-p44/42 MAPK (Erk1/2) (Thr202/Tyr204) antibody (9101, Cell Signaling Technology), anti-p44/42 MAPK (Erk1/2) antibody (9102, Cell Signaling Technology) and as controls, a rabbit polyclonal anti-GAPDH (glyceraldehyde-3-phosphate dehydrogenase) antibody (PA1-987; Affinity Bioreagents) and mouse monoclonal anti-β-Tubulin antibody (556321, BD Pharmingen). The results for A2058 are shown in FIG. 15A treated with MEKi-623 and 15B treated with MEKi-973, the results for COLO 829 are shown in FIG. 12A treated with MEKi-623 and 12B treated with MEKi-973, the results for SK23-MEL are shown in FIG. 19A treated with MEKi-623 and 19B treated with MEKi-973, and the results for IPC-298 are shown in FIG. 22A treated with MEKi-623 and 22B treated with MEKi-973.

[1] = tested on: COLO 829 melanoma xenograft; experiment: In vivo efficacy, subcutaneous melanoma xenograft, tumor volume / % TGI; parameters: species or system mice
Method: The average tumor volumes were determined from 10 animals per group. Tumor volumes were measured twice per week until study end. Tumor volumes were measured in two dimensions (length and width) using UltraCal IV calipers (Model 54 10 111, Fred V. Fowler Company; Newton, Mass.). The following formula was used with Excel, version 12.2.8 (Microsoft; Redmond, Wash.) to calculate tumor volume: Tumor Volume (mm3)=(length×width)×0.5
To analyze the repeated measurement of tumor volumes from the same animals over time, a mixed-modeling Linear Mixed Effects (LME) approach was used (Pinheiro et al. 2009). This approach can address both repeated measurements and a modest drop-out rate due to non-treatment-related termination of animals prior to study end. Cubic regression splines were used to fit a non-linear profile to the time courses of log 2 tumor volume at each dose level. These non-linear profiles were then related to dose within the mixed model. Tumor growth inhibition (TGI) as a percentage of vehicle was calculated as percent area under the fitted curve (AUC) per day in relation to the vehicle, using the following formula:
To get uncertainty intervals (UIs) for % TGI, the fitted curve and the fitted covariance matrix were used to generate a random sample as an approximation to the distribution of % TGI. The random sample is composed of 1000 simulated realizations of the fitted-mixed model, where the % TGI has been recalculated for each realization. Here, in the reported UI is the value for which 95% of the time, the recalculated values of % TGI will fall in this region given the fitted model. The 2.5 and 97.5 percentiles of the simulated distribution were used as the upper and lower UIs.
The COLO 829 xenograft model was chosen as representative of medium levels of ETBR expression, further increasing the stringency of the combination studies. Tumors were grown to an average size of approximately 200 mm^3, whereupon animals were randomized into groups of 9 each. An appropriate vehicle control (Klucel LF) or G00044364.1-12 (RG7204) at doses of 10 mpk or 30 mpk were administered orally twice a day for 21 days starting on day 0.

A2058 = experiment: In vitro killing of A2058 by RG7204 (data not shown); assay type: cell-based, human
ETBR surface protein = experiment: Surface ETBR protein in live melanoma cells, FACS; assay type: cell-based, human; conditions: 24 h
Method: as §1
(§4) To determine whether the observed increases in total ETBR protein level due to BRAFi treatment also results in an increase of ETBR surface protein levels, a fluorescence-activated cell sorting (FACS) analysis was performed. Cells were harvested in PBS with 2.5 mmol/L EDTA and washed in PBS buffer containing 1% FBS. All subsequent steps were carried out at 4° C. Cells were incubated for 1 hour with 3 μg/mL anti ETBR antibody Hu5E9v1, followed by anti-human IgG fluorescent detection reagent (A11013; Invitrogen). Cells were then analyzed with a FACS Calibur flow cytometer (BD Biosciences). The results for UACC-257X2.2 are shown in FIG. 4C, the results for A2058 are shown in FIG. 8C, and the results for COLO 829 are shown in FIG. 6C.
as §3
as §4, with “MEKi” for “BRAFi”, “performed as described above.” for “performed.”, “Biosciences).” for “Biosciences). The results for UACC-257X2.2 are shown in FIG. 4C, the results for A2058 are shown in FIG. 8C, and the results for COLO 829 are shown in FIG. 6C.”

**Q.** What does the source list for `CCCS(=O)(=O)Nc1ccc(F)c(C(=O)c2c[nH]c3ncc(-c4ccc(Cl)cc4)cc23)c1F` [RG7204, propane-1-sulfonic acid {3-[5-(4-chlorophenyl)-1H-pyrrolo[2,3-b]pyridine-3-carbonyl]-2,4-difluoro-phenyl}-amide]?
**A.** ETBR transcript vs untreated control cells (ETBR transcript; A2058 cells): appears to increase the ETBR transcripts; ETBR transcript vs untreated control cells (ETBR transcript; COLO 829 cells): appears to increase the ETBR transcripts; ETBR transcript vs untreated control cells (ETBR transcript; UACC-257X2.2 cells): appears to increase the ETBR transcripts; ETBR total protein level vs untreated control cells (ETBR total protein; A2058 cells (BRAF V600E)): appears to increase the ETBR total protein levels; ETBR total protein level vs untreated control cells (ETBR total protein; COLO 829 cells (BRAF V600E)): appears to increase the ETBR total protein levels; ETBR total protein level vs untreated control cells (ETBR total protein; IPC-298 cells (BRAF wild-type, RAS mutant)): does not appear to increase ETBR levels; ETBR total protein level vs untreated control cells (ETBR total protein; UACC-257X2.2 cells): appears to increase the ETBR total protein levels; % TGI Single Agent BRAFi vs. control ([1]; BRAFi Qdx21 10 mg/kg): 27%; % TGI Single Agent BRAFi vs. control ([1]; BRAFi Qdx21 30 mg/kg): 83%; in vitro killing efficacy (A2058): > 20 µM; surface level of ETBR protein vs untreated control cells (ETBR surface protein; A2058 cells): appears to increase the surface levels of ETBR protein; surface level of ETBR protein vs untreated control cells (ETBR surface protein; COLO 829 cells): appears to increase the surface levels of ETBR protein; surface level of ETBR protein vs untreated control cells (ETBR surface protein; IPC-298 cells): appears to reduce ETBR levels; surface level of ETBR protein vs untreated control cells (ETBR surface protein; UACC-257X2.2 cells): appears to increase the surface levels of ETBR protein
